Experimental data from patent publication US20090123940A1, “MOLECULES INVOLVED IN SYNAPTOGENESIS AND USES THEREFOR” (THE JOHNS HOPKINS UNIVERSITY, priority 2007, published 2009).

Experiments:
GluR1 = experiment: Immunocytochemical staining of surface and internalized GluR1 in cultured hippocampal neurons; assay type: cell-based
Procedure: Immunocytochemical staining. Immunocytochemical staining of heterologous cells was performed as described (Xu et al., supra). For PMA-stimulation experiments, PMA (Sigma Cat #: P8139) at (150 nM) was added 90 minutes prior to live staining. Images were viewed and captured using Nikon E800 epifluorescence microscope fitted with a Princeton Instruments CCD camera. For live staining, neurons cultured on coverslips were incubated at 10° C. with the appropriate primary antibodies at the indicated dilutions in conditioned culture medium for 20 min. They were then washed with PBS and fixed with 4% paraformaldehyde/4% sucrose in PBS for 20 min at room temperature. Cells were permeablized with 0.2% Triton X-100 in PBS for 5 min and then blocked in 10% normal goat serum in PBS for 1 hr at room temperature. If intracellular proteins were of interest, coverslips were then incubated with antibody diluted in 10% normal goat serum for 1 hr at room temperature or overnight at 4° C. Coverslips were washed with PBS and incubated with secondary antibody conjugated to Alexa488 and Alexa555 (1:500 in 10% normal goat serum, Molecular Probes Eugene, Oreg.). Coverslips were mounted using the Prolong Antifade Kit (Molecular Probes, Eugene, Oreg.). For immunocytochemistry studies, mGluR1/5 were activated using the selective agonist (S)-DHPG (Tocris Cat.# 0805) with mGluR5 allosteric potentiator DFB (Tocris Cat.#1625). Neurons were incubated with DFB (50 μM) for 5 min and then DHPG (50 μM) for an additional 5 min in neuronal incubation medium and then transferred into the original incubation medium. […] Cells were incubated at 37° C. to allow endocytosis. At indicated time points, cells were incubated with N-terminal GluR1 mouse antibody (JH 4093; 0.2 μg/100 μl; kind gift from T. […] (to block endocytosis during staining). Cells were then processed for immunofluorescent staining as described above. An acid strip protocol was employed to measure endocytosed antibody labeled GluR1 (Snyder et al., 2001). Neurons were washed with progressively cooler NIM to slow basal endocytosis. Cells were then live labeled at 10° C. with GluR1 N-terminal antibody (0.2 μg/100 μL JH4094) antibody in NIM for 20 min. After washing unbound excess antibody, cells were incubated sequentially with DFB, DHPG, and original incubation medium at 37° C., as described above. After appropriate incubation times, cells were washed with 4° C. TBS. […] Neurons were then washed with 4° C. TBS followed by processing for immunofluorescent staining as described above. All neurons were viewed and captured using UltraVIEW spinning disk confocal microscope (PerkinElmer Life Sciences, Wellesley, Mass., USA) with a Nikon Eclipse TE 200 microscope and a 63× objective (Nikon, Melville, N.Y.). Images were acquired and saved as Tiff files with a dynamic range of 65536 grey levels (16-bit binary). Image analysis was performed using Metamorph imaging software (Universal Imaging, Downingtown, Pa.). For quantification of the punctate structures (e.g. GluR1), images were thresholded by grey value to differentiate single puncta. Segments of dendrites were selected and number of puncta was calculated per […] of length dendrite. Figures show ratios of calculated mean densities (number of puncta per unit length) from treated/control. Error bars were calculated using SEM and Gaussian error propagation. n=number of measured dendrites. Significance was determined by paired Student's T-test.

[1] = system: surface GluR1 / surface LFC-NPR; experiment: Cell surface biotinylation of cultured cortical neurons; assay type: cell-based; settings: for surface LFC-NPR: cultured cortical neurons after DHPG treatment
Procedure: Cell Surface Biotinylation. Surface biotinylation of GluR1 at the plasma membrane was described previously (Snyder et al., Nat Neurosci 4:1079-85, 2001) with some modifications. Cultured cortical neurons were treated with DHPG for 5 minutes. Medium was then replaced with previously cultured medium. After 45 minutes, neurons were cooled on ice and washed with cold PBS containing 1 mM CaCl2 and 0.5 mM MgCl2 (PBS++). Cell surface proteins were labeled with cell-impermeable EZ-Link Sulfo-NHS-SS-Biotin (sulfosuccinimidyl-2-(biotinamido)ethyl-1,3-dithiopropionate; Pierce) in PBS^++ (1 mg/mL) at 4° C. for 30 min. Unreacted biotin was quenched by washing cells with cold 100 mM Glycine (pH 7.4). Cultures were lysed using RIPA buffer and homogenates were centrifuged at 13, 200 rpm to remove debris. 10% of the homogenates were used for total protein. 90% of the remaining homogenates were incubated with immobilized NeutrAvidin beads (Pierce). After washing with RIPA buffer, bound proteins were eluted with 2× Laemmli sample buffer supplemented with 2% β-ME. The eluted proteins were subjected to SDS-PAGE and Western blotting followed by ECL (Amersham Biosciences) and exposure to autoradiography film. Primary antibody concentrations were as follows: GluR1N at 0.12 μg/mL and β-actin at 1:1000. Quantification performed on digital images scanned from exposure matched autoradiographs. Densitometric analysis of these digital images was performed using ImageJ software (Version 1.33, National Institutes of Health). Significance was determined by paired Student's T-test.

[2] = system: Schaffer collateral-CA1 synapse; experiment: mGluR1/5-dependent LTD in hippocampal slices (field EPSP recording); assay type: cell-based, mouse; settings: for fEPSP slope after DHPG-induced LTD: control mouse slices, t=75 min, DHPG 50 μM for 5 min, TAPI-2 50 μM for 20 min starting 15 min before DHPG
Procedure: mGluR1/5-dependent LTD in hippocampus. Hippocampal slices from postnatal day 21 to 28 mice were prepared as previously described (Huber et al., Science 288:1254-[…]). […] Transverse slices (400 μm thick) were cut on a Vibratome 3000 (The Vibratome company). Slices were transferred to a reservoir chamber filled with a normal aCSF which comprised (in mM): 124 mM NaCl, 2.5 mM KCl, 1.3 mM MgCl2, 2.5 mM CaCl2, 1 mM NaH2PO4, 26.2 mM NaHCO3, and 20 D-glucose. Slices were allowed to recover for 2-6 hr at room temperature (22-24° C.). For recording, slices were transferred to an interface type chamber, maintained at 32° C. for 1 hr, and perfused continuously with aCSF at a rate of 2.5 mL/min. Standard methods were used to record field EPSPs (fEPSPs) from the stratum radiatum in response to stimulation of the Schaffer collateral-commissural pathway with a concentric bipolar tungsten electrode (FHC, Bowdoin, Me.). The stimulus intensity was adjusted to elicit 50-60% of the maximal response. Evoked responses were stored on-line and analyzed off-line using Clampfit (Ver. 9.2). […] The strength of the synaptic response was measured as the fEPFP slope. […] LTD was expressed as percentage of the fEPSP slope during the baseline recording. All data shown for the time course are mean±SEM.

[3] = cultured hippocampal neurons DIV 14-17, 45 min after DHPG, TAPI-2 = pretreatment (50 μM) before DHPG
[4] = TAPI-2 = pretreatment before DHPG
[5] = cultured cortical neurons, 45 min after DHPG treatment, TAPI-2 = pretreatment before DHPG
[6] = neurons derived from control mice

Compound | surface GluR1 puncta density (GluR1; [3]) | surface LFC-NPR [1, 4] | surface GluR1 [1, 5] | initial, phasic EPSP depression during DHPG treatment ([2]; TAPI-2 50 μM) | basal fEPSP slope or probability of release as indexed by paired pulse ratio (PPR) ([2]; TAPI-2 50 μM for 20 min) | fEPSP slope after DHPG-induced LTD [2] | PP-1 Hz induced LTD (fEPSP slope) ([2]; control slices pretreated with TAPI-2 50 μM, t=50 min, n=4) | surface GluR1 puncta density (GluR1; DHPG treated neurons cultured from NP TKO mice) | surface GluR1 puncta density (GluR1; DHPG treated neurons derived from control mice) | internalized GluR1 (acid-strip protocol) (GluR1; [6]) | time to maximal internalized GluR1 after addition of DHPG (GluR1; [6]) [min] | GluR1 internalization (acid-strip protocol) (GluR1; neurons from NP TKO mice) | surface GluR1 ([1]; neurons cultured from NP TKO mouse cortex, after DHPG) | surface GluR1 ([1]; neurons cultured from control mouse cortex, 45 min after DHPG) | DHPG-induced LTD (fEPSP slope) ([2]; slices from NP TKO mice, n=9) [%] | DHPG-induced LTD (fEPSP slope) ([2]; slices from NPR KO mice, n=7) [%] | DHPG-induced LTD (fEPSP slope) ([2]; slices from wild-type mice, n=13) [%]
CC(C)C[C@H](CC(=O)NO)C(=O)N[C@H](C(=O)N[C@@H](C)C(=O)NCCN)C(C)(C)C [TAPI-2] | 84.7±12.6 % of vehicle control | 108.9±16.0 % of vehicle control | 102.4±4.9 % of vehicle control | no effect | did not alter | 93.8±2.5 % of baseline | 101.8±5.6 % of baseline |  |  |  |  |  |  |  |  |  | 
N[C@H](C(=O)O)c1cc(O)cc(O)c1 [DHPG, (S)-3,5-dihydroxyphenylglycine] | 47.6±8.5 % of vehicle control | 84.3±7.2 % of vehicle control | 74.1±2.2 % of vehicle control |  |  | 74.0±3.3 % of baseline |  | 113.4±6.3 % of vehicle control | 68.5±6.0 % of vehicle control | evoked an increase in internalized GluR1 | ≤ 5 | did not increase GluR1 internalization | 98.4±9.7 % of vehicle control | 46.3±8.3 % of vehicle control | 85.9±4.1 | 96.3±2.5 | 68.6±3.7
